Data published in US11685717B2, “Polypeptide integrin antagonists” (The General Hospital Corporation, priority 2018, dated 2023).
“Also recorded” adds a separate entry of the source. Positions of bridges follow the written chain, without caps; N, C: chain ends. Non-standard residues stand in square brackets, D forms with d. Residues, ends and D or L forms follow the SMILES beside them. hArg = N=C(N)NCCCC[C@H](N)C(=O)O; Mpa = O=C(O)CCS

Key:
αIIbβ3 = biological target: T1, αIIbβ3 (Homo sapiens, UniProt P05106+P08514); test: Binding of conformation-sensitive mAbs AP5 / LIBS-1 to human platelets; type: cell-based
T1 construct: expressed in transfected cells; host or cells: K562
T1 sequence (P08514 32-887 limits assumed): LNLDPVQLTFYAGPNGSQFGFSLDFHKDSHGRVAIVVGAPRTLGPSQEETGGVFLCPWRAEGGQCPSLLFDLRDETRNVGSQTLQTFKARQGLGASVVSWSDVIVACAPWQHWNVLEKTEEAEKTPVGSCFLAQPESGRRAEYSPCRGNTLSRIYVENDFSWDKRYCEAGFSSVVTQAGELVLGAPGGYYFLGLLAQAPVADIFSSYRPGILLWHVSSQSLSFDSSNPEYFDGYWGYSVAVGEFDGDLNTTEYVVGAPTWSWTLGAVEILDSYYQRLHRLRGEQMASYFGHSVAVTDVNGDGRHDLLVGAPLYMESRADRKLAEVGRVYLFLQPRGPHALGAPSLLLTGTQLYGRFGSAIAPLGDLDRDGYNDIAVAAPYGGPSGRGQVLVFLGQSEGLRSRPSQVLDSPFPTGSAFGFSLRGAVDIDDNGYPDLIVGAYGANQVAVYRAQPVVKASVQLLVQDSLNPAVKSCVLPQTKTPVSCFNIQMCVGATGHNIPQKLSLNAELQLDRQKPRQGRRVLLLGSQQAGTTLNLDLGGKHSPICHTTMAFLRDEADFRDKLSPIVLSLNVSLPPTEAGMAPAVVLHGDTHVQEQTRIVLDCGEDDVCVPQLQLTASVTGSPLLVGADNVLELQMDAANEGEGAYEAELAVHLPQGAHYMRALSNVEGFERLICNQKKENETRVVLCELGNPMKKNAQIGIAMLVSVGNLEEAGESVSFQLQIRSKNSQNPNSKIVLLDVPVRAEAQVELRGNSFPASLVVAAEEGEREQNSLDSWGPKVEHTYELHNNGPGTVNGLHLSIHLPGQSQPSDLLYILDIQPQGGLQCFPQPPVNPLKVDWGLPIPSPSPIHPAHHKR
T1 sequence (P08514 891-1039 partner limits assumed): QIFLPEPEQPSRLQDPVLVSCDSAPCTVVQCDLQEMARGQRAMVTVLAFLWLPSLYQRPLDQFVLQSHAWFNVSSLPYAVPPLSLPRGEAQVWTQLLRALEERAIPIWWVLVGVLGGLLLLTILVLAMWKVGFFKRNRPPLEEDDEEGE
T1 sequence (P05106 27-788): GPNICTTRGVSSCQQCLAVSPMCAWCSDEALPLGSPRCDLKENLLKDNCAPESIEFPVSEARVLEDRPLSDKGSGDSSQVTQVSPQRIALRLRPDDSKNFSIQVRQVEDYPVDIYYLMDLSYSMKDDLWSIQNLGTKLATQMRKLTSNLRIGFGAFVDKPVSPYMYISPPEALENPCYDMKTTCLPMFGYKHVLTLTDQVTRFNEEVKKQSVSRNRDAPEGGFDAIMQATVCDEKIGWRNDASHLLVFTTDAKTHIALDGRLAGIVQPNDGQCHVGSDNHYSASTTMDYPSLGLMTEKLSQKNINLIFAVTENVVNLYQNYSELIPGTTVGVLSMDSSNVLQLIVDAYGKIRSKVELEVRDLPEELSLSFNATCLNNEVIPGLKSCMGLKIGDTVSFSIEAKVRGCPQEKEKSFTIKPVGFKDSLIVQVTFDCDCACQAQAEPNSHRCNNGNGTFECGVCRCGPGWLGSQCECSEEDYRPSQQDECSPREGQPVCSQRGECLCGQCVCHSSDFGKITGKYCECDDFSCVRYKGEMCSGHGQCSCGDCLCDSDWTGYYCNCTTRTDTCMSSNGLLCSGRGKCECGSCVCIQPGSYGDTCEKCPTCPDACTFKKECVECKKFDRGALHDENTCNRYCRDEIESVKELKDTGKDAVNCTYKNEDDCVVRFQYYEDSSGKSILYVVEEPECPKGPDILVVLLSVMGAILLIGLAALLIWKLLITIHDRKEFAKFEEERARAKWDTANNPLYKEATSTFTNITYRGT

human platelets [1] = test: Thrombin-induced clot retraction in human platelet-rich plasma; type: cell-based
Description: 750 μL of Tyrode's buffer supplemented with inhibitor was mixed in a glass culture tube with 200 μL of PRP and 5 μL red blood cells. Clotting was initiated by addition of 50 μL thrombin at 10 units/mL in saline and a sealed Pasteur pipette secured in the tube center. Digital photographs of the experiment were taken at 15-minute intervals over 2 hours. Images were analyzed with ImageJ software to determine the area occupied by the clot and plasma. Plots of the relative areas and linear regressions were performed with SigmaPlot (Systat Software, San Jose, Calif.).
No ligands were added to the control tube. Photographs were taken immediately after thrombin addition (FIG. 5A) and at the end of the reaction (FIG. 5B). Clot retraction around the central glass rod placed in each glass test tube before thrombin addition is shown. 5 μL of red blood cells were added per 1 mL reaction to enhance the color contrast for photography.
Clot retraction normally helps secure hemostasis in vivo as evidenced by increased bleeding in mice with impaired clot retraction (see e.g., Leon et al, Blood 110, 3183-3191, doi:10.1182/blood-2007-03-080184 (2007)), or in recipients of any of the three anti-αIIbβ3 drugs (see e.g., Tutwiler et al, Biophys. J. 112, 714-723 (2017); Osdoit et al, J. Biol. Chem. 276, 6703-6710 (2001); Haling et al, Blood 117, 1719-1722 (2011)). The effects of Hr10 and eptifibatide on thrombin-induced clot retraction in fresh human platelet-rich plasma (PRP) (see e.g., Tucker et al, Methods Mol. Biol. 788, 101-107 (2012)) were compared. The kinetics of clot retraction were determined from quantification of serial images of the reaction acquired every 15 minutes for the 2-hour duration of the assay. […] Thrombolysis, 15, 71-80 (2003).

human platelets [2] = test: Surface expression of CD62P and CD63 on human platelets (flow cytometry); type: cell-based; settings: 1.5 μM; ADP 20 μM; FIG. 11F
Description: αVβ3-K562 cells or transiently transfected HEK293T (0.5×10^6 in 100 μL WB) were incubated in the absence or presence of unlabeled Hr10 or eptifibatide, each at 1.5 μM, for 20 min at RT. Alexa647-labeled AP5 Fab or unlabeled anti-LIBS-1 (each to 10 μg/mL) were added, and cells incubated for an additional 30 min before washing. Alexa647-labeled AP3 was used for normalization of integrin expression. APC-labeled goat anti-mouse Fc-specific antibody was added to anti-LIBS-1-bound cells for an additional 30 min at 4° C., cells washed and processed for flow cytometry. Binding of anti-CD62 and anti-CD63 mAbs to platelets was performed by incubating (20 min, RT) 100 μL of ligand-pretreated 3.2% sodium citrate whole blood with either Alexa488-labeled mAb (at 10 μg/mL) in the presence of 10 μg/mL Alexa647-labeled anti-CD42b. Cells were fixed in 2% paraformaldehyde and CD62 and CD63 expression was analyzed by flow cytometry in the CD42b positive population.

human platelets [3] = test: Cremaster laser injury thrombosis in vWF RH/RH NSG mice infused with human platelets; type: in vivo; settings: eptifibatide 5 μg/mouse, Hr10 60 μg/mouse (equimolar), infused 5 min before injury; FIG. 13A
Description: Human blood was collected in 0.129 M sodium citrate (10:1 vol/vol). Blood was obtained from healthy donors after informed consent. Platelet-rich plasma (PRP) was separated after centrifugation (200 g, 10 minutes) at room temperature (RT). The platelets were then isolated from PRP, and prostaglandin E1 (Sigma-Aldrich) added to a final concentration of 1 μM. Platelets were then pelleted by centrifugation (800 g, 10 minutes) at RT. The pellet was washed in calcium-free Tyrode's buffer (134 mM NaCl, 3 mM KCl, 0.3 mM NaH2PO4, 2 mM MgCl2, 5 mM HEPES, 5 mM glucose, 0.1% NaHCO3, and 1 mM EGTA, pH 6.5), and re-suspended in CATCH buffer (PBS and 1.5% bovine serum albumin, 1 mM adenosine, 2 mM theophylline, 0.38% sodium citrate, all from Sigma-Aldrich). Platelet counts were determined using a HemaVet counter (Drew Scientific). Intravital microscopy was performed as previously described (see e.g., Celi et al, J. Thromb. Haemost. 1, 60-68 (2003); and Neyman et al, Blood, 112, 1101-1108 (2008)). vWF^RH RHNSG male mice were studied after being anesthetized using sodium pentobarbital (80 mg/kg) injected intraperitoneally. Mice were maintained under anesthesia with the same anesthetic delivered via a catheterized jugular vein at 5 mg/mL throughout the experiment. […]

[4] = Tail bleeding in vWF RH/RH NSG mice infused with human platelets; settings: mouse, in vivo
Description: Pentobarbital-anesthetized vWF^RH RHNSG mice were infused retroorbitally with 8×10^8 washed human platelets in a final volume of 200 μL (so that ˜40% of the circulating platelets were human). After 5 minutes PBS, 3 μM eptifibatide or Hr10 were administered IV. After another 5 minutes, mouse tail injury was produced by amputating an 8-mm terminal tail segment using a razor blade, which was then placed in a collection tube containing sterile water at 37° C. for 10 minutes. The hemoglobin level in the water was measured by a spectrophotometer, as described (see e.g., Greene et al, J. Thromb. Haemost. 8, 2820-2822 (2010)) with the following modifications. Briefly, the hemolyzed whole blood/water mixture was centrifuged at 21,000×g for 5 minutes. Aliquots (20 μL) of clarified, stroma-free supernatant were diluted 10-fold in a Corning 96-well micro-plate and light absorbance measured at 575 nm (Spectramax-190 plate reader, Molecular Devices, San Jose, Calif.). Blood loss during the 10-minute window was measured based on a previously obtained standard curve.

| Induction of AP5 epitope expression on human platelets (αIIbβ3; tirofiban 150 nM, M-tirofiban 1.5 μM, ADP 5 μM, FIG. 6D) | Conformational changes in αIIbβ3 reported by binding of mAbs AP5 and LIBS-1 (αIIbβ3; 1.5 μM, absence or presence of 5 μM ADP, FIG. 8D) | Bleeding volume [4] | Bleeding in humanized mice ([4]; iv) | Compound | Kinetics of thrombin-induced clot retraction (human platelets [1]; FIG. 6E, three experiments, vs buffer control) | Clot retraction induced by α-thrombin (photographs) (human platelets [1]; tirofiban 1.5 μM, m-tirofiban 15 μM, α-thrombin 0.5 unit/mL, FIG. 5) | Kinetics of thrombin-induced clot retraction vs. buffer (human platelets [1]; fresh human PRP, 2 hours, FIGS. 12A-12B, three experiments) | ADP-induced secretion from lysosomes (CD63 expression) (human platelets [2]) | ADP-induced secretion from platelet α-granules (CD62P expression) (human platelets [2]) | Nascent occlusive thrombus formation / human platelet accumulation at laser-induced arteriolar injury (human platelets [3]) |
| --- | --- | --- | --- | --- | --- | --- | --- | --- | --- | --- |
| induced expression of the AP5 epitope | – | – | – | CCCCS(=O)(=O)N[C@@H](Cc1ccc(OCCCCC2CCNCC2)cc1)C(=O)O [tirofiban] | effectively blocked thrombin-induced clot retraction | completely blocked clot retraction | – | – | – | – |
| – | induced conformational changes in αIIbβ3 | ~10 % of blood volume of a normal mouse | caused excessive bleeding | N=C(N)NCCCC[C@@H]1NC(=O)CCSSC[C@@H](C(N)=O)NC(=O)[C@@H]2CCCN2C(=O)[C@H](Cc2c[nH]c3ccccc23)NC(=O)[C@H](CC(=O)O)NC(=O)CNC1=O [eptifibatide] ([Mpa][hArg]GDWPC-NH2; disulfide 1-7) | – | – | significantly blocked clot retraction; also recorded: clot retraction was significantly reduced | did not significantly alter; also recorded: No differences | did not significantly alter; also recorded: No differences | completely preventing nascent occlusive thrombus formation |
